Source: US11814371B2, “Heterocyclic compound” (MEDSHINE DISCOVERY INC., priority 2020, dated 2023)
Counter-ions that a name gives are not always drawn. Like-named read-outs stand apart in the source and are kept apart here.

Legend:
[1] = molecular target: T1, recombinant human plasma kallikrein (Human PKal) (Homo sapiens, UniProt P03952); test: Inhibitory effect of test compounds on plasma kallikrein (PKal), fluorogenic substrate Z-FR-AMC; assay type: biochemical; conditions: 10 µM Z-FR-AMC, 10 min pre-incubation
T1 construct: Gly20-Ala638 derived from NS0- with a 60-His appendage at the C-terminus; His tag ('60-His' [sic]) (C); purchased R&D Systems 2497-SE; host or cells: mouse myeloma cell line NS0
T1 sequence (P03952 20-638): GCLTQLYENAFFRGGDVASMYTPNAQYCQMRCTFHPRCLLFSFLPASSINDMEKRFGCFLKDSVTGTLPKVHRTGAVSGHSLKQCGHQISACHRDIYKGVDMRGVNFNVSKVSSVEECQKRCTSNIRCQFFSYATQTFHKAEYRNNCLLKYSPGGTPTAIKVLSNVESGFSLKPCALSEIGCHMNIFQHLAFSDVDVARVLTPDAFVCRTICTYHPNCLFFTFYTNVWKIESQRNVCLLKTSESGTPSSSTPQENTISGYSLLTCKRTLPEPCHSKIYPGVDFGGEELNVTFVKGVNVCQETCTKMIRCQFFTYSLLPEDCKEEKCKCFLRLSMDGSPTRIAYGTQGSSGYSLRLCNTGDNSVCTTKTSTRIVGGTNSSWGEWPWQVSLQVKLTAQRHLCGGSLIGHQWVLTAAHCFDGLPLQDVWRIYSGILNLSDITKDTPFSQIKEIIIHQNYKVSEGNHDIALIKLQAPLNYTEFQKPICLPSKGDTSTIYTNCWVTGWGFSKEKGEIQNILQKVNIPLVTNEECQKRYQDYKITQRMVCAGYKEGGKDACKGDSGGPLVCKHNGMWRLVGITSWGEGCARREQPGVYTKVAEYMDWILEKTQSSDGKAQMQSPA
Experimental: 1. PKal reaction buffer: 25 mM Tris-HCl (trometamol-HCl), pH 8.0, 100 mM NaCl, […], 0.01 % Brij35 (polyoxyethylene lauryl ether), and 1 % DMSO (final concentration).
2. Enzyme: PKal (R&D Systems Cat# 2497-SE), recombinant human plasma kallikrein expressed in a mouse myeloma cell line, Gly20-Ala638 derived from NS0- with a 60-His appendage at the C-terminus, MW=70 kDa. Activation of the enzyme: (1) rhPKal was diluted to 200 µg/mL activation buffer (100 mM Tris, 10 mM CaCl2, 150 mM NaCl, pH 7.5 (TCN)); (2) thermolysin was diluted to 20 µg/mL activation buffer; (3) rhPKal (200 µg/mL) and thermolysin (20 µg/mL) were mixed in equal volumes; (4) the mixture was incubated at 37° C. for 30 min; (5) then the reactions was stopped with 50 µM EDTA (ethylenediaminetetraacetic acid).
3. Substrate (Enzo Cat# P-139): 10 µM Z-FR-AMC (AMC: 7-amino-4-methylcoumarin).
4. Detection: EnVision (PE), Ex/Em 355/460 nm.
5. Reaction process: (1) The specified enzymes and substrates were prepared in freshly prepared activation buffer; (2) the enzyme solution was injected into the reaction hole; (3) the DMSO solution of the test compound was injected into the reaction mixture, and controlled within the nanoliter range using acoustic technology (Echo 550, LabCyte Inc. Sunnyvale, CA); (4) after 10 min of pre-incubation, the substrate solution was injected into the reaction hole to start the reaction; (5) the activity of the enzyme could be indicated by the increase of the fluorescence signal of the fluorescent labeled peptide substrate, which was monitored every 5 min and lasted for 120 min at room temperature; (6) data analysis: the slope* (fluorescence signal/time) of the straight line was measured, then the slope could be calculated by excel and the curve could be fitted by Prism software.

[2] = Pharmacokinetic test in rats after intravenous and intragastric administration (plasma, LC-MS/MS); assay type: in vivo; conditions: male, SD, rat; for bioavailability: read-out: Bioavailability F; for AUC(0-inf): read-out: Curve area (o-inf) AUC0-inf; for AUC(0-t): read-out: Curve area (o-t) AUC0-last; for half-life: read-out: Half-life T½ (converted); for Tmax: read-out: Peak time Tmax; for Cmax: read-out: Plasma drug concentration Cmax; for Vd: read-out: Apparent volume of distribution Vdss; for clearance: read-out: Clearance rate Cl
Experimental: Male SD rats were used as test animals, and LC-MS/MS method was used to determine the drug concentrations in plasma of rats at different times after intravenous and intragastric administration of test compounds. The pharmacokinetic behaviors of the compounds in rats were studied and the pharmacokinetic characteristics were evaluated.
2.2 Test animals: 28 healthy adult male SD rats were divided into 14 groups with 2 rats in each group. Animals were purchased from Beijing Vital River Laboratory Animal Technology Co., Ltd.
(§1) An appropriate amount of sample was weighed, and an appropriate amount of DMSO, polyoxyethylene castor oil and sterile water for injection were added in sequence according to the volume ratio of 10:10:80, then the mixture was stirred and sonicated to reach a clear state of 0.5 mg/mL for intravenous administration.
as §1, with “clear or suspension” for “clear”, “0.4” for “0.5”, “intragastric” for “intravenous”
as §1, with “3” for “0.5”
2.4 Administration: 28 male SD rats were divided into 14 groups, after fasting for one night, the intravenous administration group was administered with an administration volume of 2 mL/kg and a dose of 1 mg/kg; the intragastric administration group 1 was administered with an administration volume of 5 mL/kg and a dose of 2 mg/kg. The intragastric administration group 2 was administered with an administration volume of 10 mL/kg and a dose of 30 mg/kg.
After the compound was administered intravenously to male SD rats, 40 µL of blood was collected at 0.0833, 0.25, 0.5, 1, 2, 4, 8 and 24 hours, respectively, and placed in tubes containing 2 µL of EDTA-K2. After the compound was administered in the intragastric administration group, 40 µL of blood was collected at 0.25, 0.5, 1, 2, 4, 6, 10 and 24 hours, respectively, and placed in tubes containing 2 µL of EDTA-K2. The tubes were centrifuged at 4000 rpm for 15 minutes to separate the plasma, and stored at -60° C. Animals were allowed to eat 2 hours after administration.
LC-MS/MS method was used to determine the content of the test compounds in the plasma of rats after intravenous and intragastric administration. The linear range of the method was 2.00 - 6000 nmol/L; plasma samples were treated with acetonitrile to precipitate protein, and then analyzed.

[3] = po, intragastric administration (group 1), nominal 2 mg/kg (actual dose in c2)
[4] = intravenous administration, nominal 1 mg/kg (actual dose in c2)
[5] = po, intragastric administration (group 2), nominal 30 mg/kg (actual dose in c2)

Compound	IC50 [1] [nM]	AUC(0-inf) [2, 3] [µM·h]	AUC(0-t) [2, 3] [µM·h]	half-life [2, 3] [min]	Tmax [2, 3] [min]	Cmax [2, 3] [nM]	other results
COc1ccc(Cl)c(CNC(=O)c2cn(Cc3ccc(Cn4ccccc4=O)cc3)nc2C2COC2)c1F [Compound 4]	0.052	1.8	1.79	76.8	22.2	1550	bioavailability [2, 3]: 22.7%; Vd [2, 4]: 0.182 L/kg; clearance [2, 4]: 8.26 mL/min/kg; AUC(0-inf) [2, 4]: 3.95 µM·h; AUC(0-t) [2, 4]: 3.94 µM·h; half-life [2, 4]: 36.3 min
COc1ccnc(CNC(=O)c2cn(Cc3ccc(Cn4cc(F)ccc4=O)cc3)nc2C2COC2)c1F [Compound 2]	1.53	0.246	0.241	26.2	15	301	–
COc1ccc(F)c(CNC(=O)c2cn(Cc3ccc(Cn4ccccc4=O)cn3)nc2C2COC2)c1F [Compound 5]	18.7	–	–	–	–	–	–
COc1ccc(Cl)c(CNC(=O)c2cn(Cc3ccc(Cn4cc(F)ccc4=O)cc3)nc2C2COC2)c1F [Compound 3]	0.264	2.12	2.11	82.2	30	1760	bioavailability [2, 3]: 19.3%; Vd [2, 4]: 0.169 L/kg; clearance [2, 4]: 7.85 mL/min/kg; AUC(0-inf) [2, 4]: 5.5 µM·h; AUC(0-t) [2, 4]: 5.49 µM·h; half-life [2, 4]: 42.8 min
COc1ccc(F)c(CNC(=O)c2cn(Cc3ccc(Cn4cc(F)ccc4=O)nc3)nc2C2COC2)c1F [Compound 6]	2.63	0.661	0.653	140	22.2	650	–
COc1ccc(F)c(CNC(=O)c2cn(Cc3ccc(Cn4ccccc4=O)c(F)c3)nc2C2COC2)c1F [Compound 7]	0.552	–	–	–	–	–	AUC(0-inf) [2, 5]: 1.93 µM·h; AUC(0-t) [2, 5]: 1.84 µM·h; half-life [2, 5]: 157 min; Tmax [2, 5]: 30 min; Cmax [2, 5]: 813 nM
COc1ccnc(CNC(=O)c2cn(Cc3ccc(Cn4cc(F)ccc4=O)cc3)nc2C2(C)COC2)c1F [Compound 9]	1.03	–	–	–	–	–	–

Further lines, with some results ahead:

IC50 [1] [nM]	AUC(0-inf) [2, 3] [µM·h]	AUC(0-t) [2, 3] [µM·h]	half-life [2, 3] [min]	Tmax [2, 3] [min]	Cmax [2, 3] [nM]	Compound	other results
2.24	–	–	–	–	–	COc1ccnc(CNC(=O)c2cn(Cc3ccc(Cn4cc(F)ccc4=O)cc3)nc2C2CN(CC(F)(F)F)C2)c1F [Compound 15]	–
0.833	–	–	–	–	–	COc1ccc(F)c(CNC(=O)c2cn(Cc3ccc(Cn4ccccc4=O)cc3)nc2C2CN(C(C)=O)C2)c1F [Compound 13]	–
1.08	–	–	–	–	–	COc1ccc(F)c(CNC(=O)c2cn(Cc3ccc(Cn4ccccc4=O)cc3)nc2C2CN(C)C2)c1F [Hydrochloride of compound 12]	–
0.269	–	–	–	–	–	COc1ccc(F)c(CNC(=O)c2cn(Cc3ccc(Cn4ccccc4=O)cc3)nc2C2CNC2)c1F [Hydrochloride of compound 11]	–
0.62	1.94	1.93	136	45	1140	COc1ccc(F)c(CNC(=O)c2cn(Cc3ccc(Cn4ccccc4=O)cc3)nc2C2COC2)c1F [Compound 16]	bioavailability [2, 3]: 22.1%; Vd [2, 4]: 0.2 L/kg; clearance [2, 4]: 7.3 mL/min/kg; AUC(0-inf) [2, 4]: 4.39 µM·h; AUC(0-t) [2, 4]: 4.37 µM·h; half-life [2, 4]: 35.8 min
0.053	0.246	0.237	50.8	30	230	COc1ccnc(CNC(=O)c2cn(Cc3ccc(Cn4ccccc4=O)cc3)nc2C2COC2)c1F [Compound 17]	–
0.717	–	–	–	–	–	COc1ccc(F)c(CNC(=O)c2cn(Cc3ccc(Cn4ccccc4=O)cc3)nc2C2CN(S(C)(=O)=O)C2)c1F [Compound 14]	–
2.31	–	–	–	–	–	COc1ccnc(CNC(=O)c2cn(Cc3ccc(Cn4cc(F)ccc4=O)c(F)c3)nc2C2COC2)c1F [Hydrochloride of compound 18]	–
0.344	–	–	–	–	–	COc1ccc(F)c(CNC(=O)c2cn(Cc3ccc(Cn4cc(F)ccc4=O)cc3)nc2C2(C)COC2)c1F [Compound 10]	–
